This note sets out measurements from patent US6338963B1, “Use of carbon monoxide dependent guanylyl cyclase modifiers to stimulate neuritogenesis” (NeoTherapeutics, Inc., priority 1994, dated 2002).

One series concerns C57BL/6 mice. Briefly: Win-shift test, C57BL/6 mice with age-induced memory deficits. In kind it is in vivo. The settings on record: for subjects performing significantly above chance/total number of subjects: AIT-082 30 mg/kg. The procedure:
Twelve-month old male C57BL/6 mice were screened for performance in the win-shift foraging test. Subjects were tested at various inter-trial time intervals. Subjects who could not perform to criteria (>60% correct) at 10 seconds delay were classified as having a severe deficit. Subjects who performed to criteria at 10 seconds but not at 30 seconds were classified as having a moderate degree of deficit and subjects who performed to criteria at 30 seconds but not at 60 seconds were classified as having mild deficit. As in Example 21, subjects in each group were treated with either AIT-082 or PHY to determine the extent to which the working memory trace was prolonged. The results are presented in Table M directly below and graphically represented in FIG. 10.

Series [1] in a line: Appearance and weight during one week in drinking water. Type of series: in vivo, F344 rats. The settings on record: 30 mg/kg/day and ~3,000 mg/kg/day in drinking water. On the procedure: Adult female F344 rats were given either AIT-082 (doses: 30 mg/kg/day or a higher dose of 30 mg/ml (˜3,000 mg/kg/day); n=6 rats per group) in their drinking water, or water alone, as a vehicle for control. The duration of the study was seven days, at which time the rats were anesthesized and perfused with ice-cold saline. The brains of the rats were rapidly removed. The brains were placed on a chilled glass plate and dissected into the following regions: basal forebrain, frontal cortex, parietal cortex, cerebellum, spinal cord, and hippocampal formation. Tissues were stored at −70° C. until assayed in a specific two-site ELISA for either NGF, BDNF, NT-3, or GNDF.
This effect was not seen in animals treated with AIT-082 at 3000 mg/kg/day.

The test system of series [2] is mice. Briefly: Hot plate nocioception. In kind it is in vivo. The settings on record: hot plate 55° C. The procedure:
Mice were placed on an electric hot plate (Ominitech) at 55° C. and the latency time until the subject licked his hind paw was measured. If there was no response by 45 seconds, the trial was terminated. By this test there was no effect of AIT-082 on nocioception.

The next series relates to S100β. Briefly: Summary of effects on growth factor mRNA and protein (Table R): S100β. Also on record: key: ± = mRNA; + = protein; nt = not tested. The settings on record: Cultured Cells. From the text: (§1) The constellation of effects of AIT-082 on production of mRNA encoding growth factors and on production of growth factor proteins is shown in Table R. The results summarized in […] show both transcriptional and translational effects on growth factors that are in the categories of neurotrophins, pleiotrophins, members of the S100 family of EF hand calcium binding proteins, and members of the TGFβ superfamily. As indicated, effects have been shown at both the mRNA (transcriptional) and protein (translational) levels.

The next series has as its system CNTF. The experiment in a line: Summary of effects on growth factor mRNA and protein (Table R): CNTF. On the set-up: key: ± = mRNA; + = protein; nt = not tested.
Text: as §1

Another series concerns 38 isolated receptors. Briefly: Receptor ligand binding in vitro (Nova Labs).
Series [3] concerns mice. Briefly: Motor coordination, accelerating Roto-Rod treadmill. The settings on record: AIT dose 0.005 mg/kg. In kind it is in vivo. On the procedure:
Motor coordination was measured using an accelerating Roto-Rod treadmill for mice (Ugo Basile Co.). At various times after treatment with saline or drug, mice were placed on the Roto-Rod, which accelerates to maximum speed over a 5 minute period. The time in seconds at which the subject falls off was recorded in Table B directly below. Each animal was tested 3 times and the mean time was recorded.
On the technique in general: Falling from the rotarod earlier than controls is read as motor impairment.

A further series deals with GDNF. The experiment in a line: Summary of effects on growth factor mRNA and protein (Table R): GDNF. On the set-up: key: ± = mRNA; + = protein; nt = not tested.
Text: as §1

For a further series, the system named is rat cultured astrocytes. Briefly: Release of radioactively labeled adenine-based purines from rat cultured astrocytes. Type of series: cell-based. The settings on record: 300 μM, 1 hour. On the procedure:
The experiments were carried out on cultured astrocytes of rat hippocampus at the fourth day in vitro (DIV), obtained from primary cultures replated in 35 mm Petri dishes ([…] cells/dish) and preloaded with [^3H]-adenosine (5×10^−8 M for a specific activity of 20.0 Ci/mM) for 30 minutes at 37° C.
The effect of AIT-082 on the proportional release of radioactively labeled adenine nucleosides and nucleotides from rat cultured astrocytes is shown in FIGS. 29A and 29B. Culture medium collected during the first hour of the release was analyzed by high performance liquid chromatography (HPLC) and the radioactivity associated with the different adenine compounds was measured and expressed as a percentage of the total radioactivity released. The results are shown for ATP, ADP, and AMP in FIG. 29A, and for adenosine, inosine, and hypoxanthine in FIG. 29B.

The test system of a further series is neocortical astrocytes. The experiment in a line: NGF-like immunoreactivity in astrocyte culture medium (ELISA). Type of series: cell-based, mouse. The settings on record: astrocytes incubated with different concentrations. On the procedure: Astrocytes appear to proliferate in response to extracellular guanosine or guanosine triphosphate (GTP). GTP or guanosine may also stimulate the release of trophic factors from cultures of neocortical astrocytes from neonatal mouse brains. Astrocytes were incubated with different concentrations of guanosine or GTP respectively. Neurotrophin imunoreactivity in the culture medium from treated cells was then measured by ELISA.
Briefly, 96 well Falcon plates (Fisher) were coated with […] of sheep mono-specific anti-NGF IgG (affinity column purified) contained in 0.1M sodium carbonate buffer pH 9.6. After an overnight incubation at 4° C. blocking solution (PBS with 10% goat serum) was added to remove excess antibody. After a four hour incubation at room temperature the plates were washed three times with PBS containing 0.05% Tween 20. The conditioned media and standard 2.5S HPLC purified NGF were added and incubated overnight. The next day plates were washed 3 times with PBS-0.05% Tween 20. The secondary antibody, rabbit mono-specific anti-NGF IgG conjugated with β-galactosidase (Pierce-SPDP method) (1:500 dilution) was added. The plates were incubated overnight at 4° C. The next day the plates were washed 3 times with PBS-0.05% Tween 20. […]
The ELISA assay detected neurotrophins NGF and NT-3 with ahnost equal affinity and BDNF with 100 times less affinity. […]

Marks after values point to notes of the source that are not given here.

For `O=C(CCn1cnc2c(=O)[nH]cnc21)Nc1ccc(C(=O)O)cc1` [AIT-082, N-4-carboxyphenyl-3-(6-oxohydropurin-9-yl)propanamide], the “subjects performing significantly above chance/total number of subjects” value with C57BL/6 mice (Mild deficit, interval 60 sec) is given as 4/4*; with C57BL/6 mice (Mild deficit, interval 90 sec) it was 2/4*; with C57BL/6 mice (Moderate deficit, interval 10 sec), 6/6*; in the series with C57BL/6 mice (Moderate deficit, interval 30 sec), 4/6; with C57BL/6 mice (Moderate deficit, interval 60 sec) it was 1/6; with C57BL/6 mice (Moderate deficit, interval 90 sec), 0/6. The “subjects performing significantly above chance/total number of subjects” value in the series on C57BL/6 mice (Severe deficit, interval <10 sec) is on record as 0/6. Moreover, the “duration of the memory trace after treatment” value in the series with C57BL/6 mice (mild deficit group, prolonged from 30) turned out to be 90 s; in the series on C57BL/6 mice (moderate deficit group, prolonged from 10), 30 s. Also, the appearance and weight result in series [1] is “appeared normal and showed no overt signs of weight loss”. Further, the “effect on nocioception (hot plate latency)” value in the series on mice [2] is “no effect”. Also, in the series on S100β, the “S100β, effect on mRNA/protein production” value is “+”. Further, the “CNTF, effect on mRNA/protein production” value with CNTF (Lesioned Spinal Cord) and with CNTF (Normal Spinal Cord) was “±” each time. Also, the “inhibition of ligand binding” value in the series on 38 isolated receptors is “no activity”. Moreover, the “Roto-Rod performance, Time” value with mice [3] worked out at 162 ± 93 s. The “GDNF, effect on mRNA/protein production” value in the series with GDNF (Aged Brain), with GDNF (Lesioned Brain), in the series with GDNF (Normal Brain) and in the series with GDNF (Normal Spinal Cord) was “+” throughout.
Regarding `Nc1nc2c(ncn2[C@@H]2O[C@H](CO)[C@@H](O)[C@H]2O)c(=O)[nH]1` [guanosine], in the series with rat cultured astrocytes, the “ADP, proportional release” value was “(6.5 ± 0.7) percentage of the total [^3H]-purines released”; the “Adenosine, proportional release” value is “(11.9 ± 0.8) percentage of the total [^3H]-purines released”; the “Inosine, proportional release” value is “(36.0 ± 3.9) percentage of the total [^3H]-purines released”. Moreover, the “NGF-like immunoreactivity in the culture medium” value in the series on neocortical astrocytes is reported as “increased the amount of NGF-like immunoreactivity”.
